Patent publication EP1169483B1, “VARIATION IN DRUG RESPONSE RELATED TO POLYMORPHISMS IN BETA2- ADRENERGIC RECEPTOR” (UNIVERSITY OF CINCINNATI, priority 1999, dated 2001)

Legend:
Ile164 receptor [1] = conditions: cited from earlier work; for binding affinity: competition with [125I]cyp in the presence of GTP, Ile164 receptor
Ile164 receptor [2] = conditions: Ile164 receptor compared to Thr164 receptor; cited from earlier work
human Ile164 receptor = conditions: transgenic mice overexpressing human Ile164 receptor in the heart compared to wild-type receptor; cited from earlier work
Thr164 receptor = conditions: COS-7 cells transiently transfected; salmeterol 10 minutes at 37 °C, perfused with saline 30 min; n = 5, p = 0.02

salmeterol exosite binding (Thr164 receptor) [%]	Compound	binding affinity (Ile164 receptor [1])	stimulation of adenylyl cyclase (Ile164 receptor [2])	adenylyl cyclase activity in response to agonist (human Ile164 receptor)	binding curves (Ile164 receptor [1]; in the absence of GTP, Ile164 compared to Thr164 receptor (Figure 2))
–	CNC[C@H](O)c1ccc(O)c(O)c1 [epinephrine]	small decrease in binding affinity	decreased stimulation	–	–
–	CC(C)NCC(O)c1ccc(O)c(O)c1 (stereo not shown) [isoproterenol]	small decrease in binding affinity	–	lowered activities	different between the two receptors
–	NC[C@H](O)c1ccc(O)c(O)c1 [norepinephrine]	small decrease in binding affinity	–	–	–
49 ± 4	OCc1cc(C(O)CNCCCCCCOCCCCc2ccccc2)ccc1O (stereo not shown) [salmeterol]	–	–	–	–
